ChEMBL document CHEMBL3217425, “Structure-based design, synthesis, and profiling of a -tryptase inhibitor with a spiro-piperidineamide scaffold, benzylamine P1 group, and a substituted indole P4 group” (Medchemcomm, 2011)

Tests used:
[1] = target: T1, SSAO (amine oxidase [copper-containing] 3) (Homo sapiens, UniProt Q16853); assay: Stability of the compound assessed as human full length SSAO-mediated drug metabolism expressed in CHO cells measured as compound remaining after 20 mins; format: ADME, cell-based; details: CHO cells expressing human full length SSAO, read-out: Stability
T1 sequence (Q16853 whole entry): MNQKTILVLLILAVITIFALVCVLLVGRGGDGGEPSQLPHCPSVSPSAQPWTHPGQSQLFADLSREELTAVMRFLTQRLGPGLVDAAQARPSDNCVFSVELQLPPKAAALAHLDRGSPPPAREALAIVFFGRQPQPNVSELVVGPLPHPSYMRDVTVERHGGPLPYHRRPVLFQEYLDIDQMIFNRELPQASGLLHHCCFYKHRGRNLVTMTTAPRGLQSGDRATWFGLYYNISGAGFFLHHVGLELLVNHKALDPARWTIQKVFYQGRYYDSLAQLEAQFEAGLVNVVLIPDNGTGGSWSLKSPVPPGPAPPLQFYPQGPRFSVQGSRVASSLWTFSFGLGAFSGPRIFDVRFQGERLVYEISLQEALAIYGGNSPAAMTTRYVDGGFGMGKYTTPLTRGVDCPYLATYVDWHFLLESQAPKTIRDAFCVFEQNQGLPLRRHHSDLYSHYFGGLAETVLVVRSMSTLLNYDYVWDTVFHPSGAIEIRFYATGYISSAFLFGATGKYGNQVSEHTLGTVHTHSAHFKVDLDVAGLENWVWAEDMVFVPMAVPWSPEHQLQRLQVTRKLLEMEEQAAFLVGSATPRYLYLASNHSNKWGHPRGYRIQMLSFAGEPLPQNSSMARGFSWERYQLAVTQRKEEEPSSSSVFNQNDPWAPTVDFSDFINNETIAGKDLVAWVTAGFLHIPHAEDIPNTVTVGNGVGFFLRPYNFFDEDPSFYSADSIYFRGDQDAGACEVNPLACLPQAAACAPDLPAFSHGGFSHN

[2] = Drug metabolism in guinea pig liver microsomes after 20 mins; format: ADME, Cavia porcellus; details: read-out: Drug metabolism
[3] = Drug metabolism in rat liver microsomes after 20 mins; format: ADME; details: read-out: Drug metabolism
[4] = Drug metabolism in human liver microsomes after 20 mins; format: ADME; details: read-out: Drug metabolism
hERG (KCNH2) [5] = target: T2, hERG (KCNH2) (Homo sapiens, UniProt Q12809); assay: Inhibition of human ERG channel expressed in CHO cells at 1 uM; format: cell-based; details: CHO cells expressing human ERG channel
hERG (KCNH2) [6] = target: T2, hERG (KCNH2); assay: Inhibition of human ERG channel expressed in CHO cells at 10 uM; format: cell-based; details: CHO cells expressing human ERG channel

T2 sequence (Q12809 whole entry): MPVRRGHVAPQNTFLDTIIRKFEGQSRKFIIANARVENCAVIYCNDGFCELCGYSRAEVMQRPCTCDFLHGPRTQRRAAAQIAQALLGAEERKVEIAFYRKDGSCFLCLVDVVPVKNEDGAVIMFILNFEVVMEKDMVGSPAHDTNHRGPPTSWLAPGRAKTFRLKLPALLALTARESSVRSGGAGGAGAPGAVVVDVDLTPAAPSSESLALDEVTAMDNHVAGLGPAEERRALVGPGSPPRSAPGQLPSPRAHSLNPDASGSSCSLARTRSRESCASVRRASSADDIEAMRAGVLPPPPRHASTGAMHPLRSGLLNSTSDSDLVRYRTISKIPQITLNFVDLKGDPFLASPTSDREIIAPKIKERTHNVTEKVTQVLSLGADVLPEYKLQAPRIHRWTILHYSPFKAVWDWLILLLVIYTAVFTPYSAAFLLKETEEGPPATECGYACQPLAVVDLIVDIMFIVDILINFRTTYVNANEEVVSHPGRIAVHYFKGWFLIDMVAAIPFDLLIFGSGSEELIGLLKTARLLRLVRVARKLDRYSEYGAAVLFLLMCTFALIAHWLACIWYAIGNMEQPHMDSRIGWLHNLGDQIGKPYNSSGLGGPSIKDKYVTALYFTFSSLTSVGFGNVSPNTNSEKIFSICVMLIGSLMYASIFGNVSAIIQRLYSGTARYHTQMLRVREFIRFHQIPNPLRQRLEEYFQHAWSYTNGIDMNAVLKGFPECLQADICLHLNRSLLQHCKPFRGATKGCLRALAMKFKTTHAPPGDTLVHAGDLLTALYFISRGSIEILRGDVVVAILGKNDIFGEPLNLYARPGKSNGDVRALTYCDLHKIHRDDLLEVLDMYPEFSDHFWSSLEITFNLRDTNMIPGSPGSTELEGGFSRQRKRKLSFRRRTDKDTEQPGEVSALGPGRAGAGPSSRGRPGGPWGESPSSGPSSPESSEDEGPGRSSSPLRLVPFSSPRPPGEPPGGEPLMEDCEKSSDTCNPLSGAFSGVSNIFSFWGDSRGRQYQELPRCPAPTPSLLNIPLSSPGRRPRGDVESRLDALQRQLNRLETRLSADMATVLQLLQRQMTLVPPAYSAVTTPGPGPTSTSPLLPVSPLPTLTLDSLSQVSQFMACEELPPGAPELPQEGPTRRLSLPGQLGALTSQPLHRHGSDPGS

remaining at 20 min [1] [%] | Structure (SMILES) | metabolised at 20 min [2] [%] | metabolised at 20 min [3] [%] | metabolised at 20 min [4] [%] | inhibition at 1 µM (hERG (KCNH2) [5]) [%] | inhibition at 10 µM (hERG (KCNH2) [6]) [%]
8 | NCc1cccc(C2CCN(C(=O)c3ccc(C#Cc4ccccc4F)o3)CC2)c1 |  |  |  |  | 
89 | COCCn1cc(C(=O)N2CCC3(CC2)COc2ccc(CN)cc23)c2cccc(F)c21 | 12 | 10 | 17 | 11 | 16

Structure (SMILES) | remaining at 20 min [1] [%] | metabolised at 20 min [2] [%] | metabolised at 20 min [3] [%] | metabolised at 20 min [4] [%] | inhibition at 1 µM (hERG (KCNH2) [5]) [%] | inhibition at 10 µM (hERG (KCNH2) [6]) [%]
COCCn1cc(C(=O)N2CCC(c3cc(CN)ccc3F)CC2)c2cccc(F)c21 | 78 | 38 | 21 | 71 |  | 
